Source: paper PMC6936879, “Inhibiting the copper efflux system in microbes as a novel approach for developing antibiotics” (PLoS ONE, 2019)

System: E. coli (BL21;DE3)
Assay: E. coli growth rate experiment (O.D. 600 nm) under copper stress
Assay type: cell-based
Details: M9 medium, 37 °C, value after 14 h incubation, 5 μM Cu(II) chloride in assay (sentence does not say with or without Cu(II)), mean ± SE, n = 5
Procedure: E. coli (BL21;DE3) growth rates were evaluated in 96-well microplates: in 200 μl of a poor medium comprising M9 medium. Incubation was for 16 h at 37°C with Copper(II) chloride (Sigma-Aldrich, St. Louis, MO, USA) at a concentration of 5 μM. Absorbance at 600 nm was measured every 30 min after stirring for 5 s in a 96-well plate reader (SPL Life Sciences, Gyeonggi, Korea). The buffer background was auto-subtracted. Each experiment was repeated five times under identical conditions.
Next, E. coli were grown in M9 medium for 16 h, and their growth rate was evaluated in the absence and presence of Cu(II) in the medium. In each sample, a different peptide was introduced to the medium, with the kanamycin as a positive control. […] Growth rate values for all peptides at various concentrations after 14 h of incubation are presented in Fig 3 (the growth rate curves are presented in Figs E to F in S1 File).
Fig 3 Effect of test peptides on the E. coli growth rate. E. coli cultures were grown as described in Methods. The growth rate values after a 14 h incubation in the medium in the presence (gray lines) and absence (black lines) of Cu(II). Concentrations of the test peptides: A. 50 μM, B. 75 μM, C. 100 μM, and D. 125 μM. *p < 0.05, MEAN ± SE, n = 5, a comparison between the values in the presence and absence of Cu(II). #p < 0.05, MEAN ± SE, n = 5, in the presence of Cu(II) and comparing between values of a buffer and peptide. t-test was used for the statistic evaluation.

AKIQG [pep8]
decrease in O.D. (600 nm) (peptide 50 μM): 45.5 ± 4.8% | decrease in O.D. (600 nm) (peptide 100 μM): 63.6 ± 4.0%
